Data from PubChem BioAssay (NCI).
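The compound was tested at five concentrations on cells cultured in 96-well plates, with a 48-hour exposure period. GI50 = concentration required for 50% inhibition of growth. TGI is the concentration that stops growth completely.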

Assays:
Assay in all cases: growth of human tumour cells (NCI), 48 h
[1] = system: DU-145 prostate
[2] = system: SR leukemia
[3] = system: HCT-15 colon
[4] = system: SW-620 colon
[5] = system: OVCAR-8 ovarian
[6] = system: HS 578T breast
[7] = system: SK-OV-3 ovarian
[8] = system: SK-MEL-5 melanoma
[9] = system: UACC-62 melanoma
[10] = system: LOX IMVI melanoma
[11] = system: ACHN renal
[12] = system: NCI-H226 lung
[13] = system: M14 melanoma
[14] = system: TK-10 renal
[15] = system: RXF 393 renal
[16] = system: IGROV1 ovarian
[17] = system: SNB-75 CNS
[18] = system: OVCAR-5 ovarian
[19] = system: OVCAR-4 ovarian
[20] = system: SNB-19 CNS
[21] = system: UO-31 renal
[22] = system: BT-549 breast
[23] = system: MALME-3M melanoma
[24] = system: SF-539 CNS
[25] = system: SF-268 CNS
[26] = system: UACC-257 melanoma
[27] = system: NCI-H460 lung
[28] = system: T-47D breast
[29] = system: KM12 colon
[30] = system: SK-MEL-28 melanoma
[31] = system: COLO 205 colon
[32] = system: NCI/ADR-RES ovarian
[33] = system: HT29 colon
[34] = system: MDA-MB-435
[35] = system: A549 NSCLC
[36] = system: NCI-H23 lung
[37] = system: U251 CNS
[38] = system: PC-3 prostate
[39] = system: SK-MEL-2 melanoma
[40] = system: RPMI-8226 leukemia
[41] = system: HCC-2998 colon
[42] = system: A498 renal
[43] = system: HL-60(TB) leukemia
[44] = system: MCF7 breast
[45] = system: HOP-92 NSCLC
[46] = system: MDA-MB-231 breast
[47] = system: OVCAR-3 ovarian
[48] = system: HOP-62 NSCLC
[49] = system: MOLT-4 leukemia
[50] = system: HCT-116 colon
[51] = system: 786-0 renal
[52] = system: SF-295 CNS
[53] = system: CCRF-CEM leukemia
[54] = system: SN12C renal
[55] = system: NCI-H522 lung
[56] = system: CAKI-1 renal
[57] = system: EKVX NSCLC
[58] = system: K-562 leukemia

Cc1cc(-c2ccco2)cc(C)c1/C=C/c1cncc(-c2nn[nH]n2)c1
GI50 [1]: > 25 µM | TGI [1]: > 25 µM | GI50 [2]: > 25 µM | TGI [2]: > 25 µM | GI50 [3]: > 25 µM | TGI [3]: > 25 µM | GI50 [4]: > 25 µM | TGI [4]: > 25 µM | GI50 [5]: > 25 µM | TGI [5]: > 25 µM | GI50 [6]: > 25 µM | TGI [6]: > 25 µM | GI50 [7]: > 25 µM | TGI [7]: > 25 µM | GI50 [8]: > 25 µM | TGI [8]: > 25 µM | GI50 [9]: > 25 µM | TGI [9]: > 25 µM | GI50 [10]: > 25 µM | TGI [10]: > 25 µM | GI50 [11]: > 25 µM | TGI [11]: > 25 µM | GI50 [12]: > 25 µM | TGI [12]: > 25 µM | GI50 [13]: > 25 µM | TGI [13]: > 25 µM | GI50 [14]: > 25 µM | TGI [14]: > 25 µM | GI50 [15]: > 25 µM | TGI [15]: > 25 µM | GI50 [16]: > 25 µM | TGI [16]: > 25 µM | GI50 [17]: > 25 µM | TGI [17]: > 25 µM | GI50 [18]: > 25 µM | TGI [18]: > 25 µM | GI50 [19]: > 25 µM | TGI [19]: > 25 µM | GI50 [20]: > 25 µM | TGI [20]: > 25 µM | GI50 [21]: > 25 µM | TGI [21]: > 25 µM | GI50 [22]: > 25 µM | TGI [22]: > 25 µM | GI50 [23]: > 25 µM | TGI [23]: > 25 µM | GI50 [24]: > 25 µM | TGI [24]: > 25 µM | GI50 [25]: > 25 µM | TGI [25]: > 25 µM | GI50 [26]: > 25 µM | TGI [26]: > 25 µM | GI50 [27]: > 25 µM | TGI [27]: > 25 µM | GI50 [28]: > 25 µM | TGI [28]: > 25 µM | GI50 [29]: > 25 µM | TGI [29]: > 25 µM | GI50 [30]: > 25 µM | TGI [30]: > 25 µM | GI50 [31]: > 25 µM | TGI [31]: > 25 µM | GI50 [32]: > 25 µM | TGI [32]: > 25 µM | GI50 [33]: > 25 µM | TGI [33]: > 25 µM | GI50 [34]: > 25 µM | TGI [34]: > 25 µM | GI50 [35]: > 25 µM | TGI [35]: > 25 µM | GI50 [36]: > 25 µM | TGI [36]: > 25 µM | GI50 [37]: > 25 µM | TGI [37]: > 25 µM | GI50 [38]: > 25 µM | TGI [38]: > 25 µM | GI50 [39]: > 25 µM | TGI [39]: > 25 µM | GI50 [40]: > 25 µM | TGI [40]: > 25 µM | GI50 [41]: > 25 µM | TGI [41]: > 25 µM | GI50 [42]: > 25 µM | TGI [42]: > 25 µM | GI50 [43]: > 25 µM | TGI [43]: > 25 µM | GI50 [44]: > 25 µM | TGI [44]: > 25 µM | GI50 [45]: > 25 µM | TGI [45]: > 25 µM | GI50 [46]: > 25 µM | TGI [46]: > 25 µM | GI50 [47]: > 25 µM | TGI [47]: > 25 µM | GI50 [48]: > 25 µM | TGI [48]: > 25 µM | GI50 [49]: > 25 µM | TGI [49]: > 25 µM | GI50 [50]: > 25 µM | TGI [50]: > 25 µM | GI50 [51]: > 25 µM | TGI [51]: > 25 µM | GI50 [52]: > 25 µM | TGI [52]: > 25 µM | GI50 [53]: > 25 µM | TGI [53]: > 25 µM | GI50 [54]: > 25 µM | TGI [54]: > 25 µM | GI50 [55]: > 25 µM | TGI [55]: > 25 µM | GI50 [56]: > 25 µM | TGI [56]: > 25 µM | GI50 [57]: > 25 µM | TGI [57]: > 25 µM | GI50 [58]: > 25 µM | TGI [58]: > 25 µM
